Measured values reported in patent publication US20230133087A1, “ACTIVE COMPOUND COMBINATIONS AND FUNGICIDE COMPOSITIONS COMPRISING THOSE” (priority 2020, published 2023).
“And” between values parts separate entries of the source, which are not always exact repeats. Identical values can stand only once.

Experiments:
Format in all cases: cell-based
Cordana musae = test: In vitro-test with fungal microorganisms: Cordana musae
Description: (§1) The degree of efficacy, expressed in % is denoted. 0% means an efficacy which corresponds to that of the control while an efficacy of 100% means that no disease is observed.
(§2) Wells of 96-well microtiter plates are filled with 30 μl of a preparation of test compound or compound combination in methanol+emulsifier alkylaryl-polyglycol-ether. Thereafter, the solvent is evaporated in a hood. At the next step, into each well 200 μl of liquid growth medium is given, that has been amended with an appropriate concentration of spores or mycelium suspension of the test fungus.
(§3) With the aid of a photometer the extinction in all wells is measured at the wavelength of 600 nm.
(§4) The microtiter plates are incubated for 3 to 7 days at 20° C. and 85% relative humidity. After the incubation inhibition of growth is determined photometrically. Efficacy is calculated in relation to the untreated control, 0% efficacy means fungal growth as high as in untreated control while 100% efficacy means no fungal growth is measured.

Colletotrichum coccodes = test: In vitro-test with fungal microorganisms: Colletotrichum coccodes
Description: as §1, §2, §3, §4

Diaporthe citri = test: In vitro-test with fungal microorganisms: Diaporthe citri
Description: as §1, §2, §3, §4

Parastasonospora nodorum = test: In vitro-test with fungal microorganisms: Parastasonospora nodorum
Description: as §1, §2, §3, §4

Alternaria alternata = test: In vitro-test with fungal microorganisms (microtiter plate, photometric growth inhibition): Alternaria alternata
Description: as §1, §2, §3, §4

Botrytis cinerea = test: In vitro-test with fungal microorganisms: Botrytis cinerea
Description: as §1, §2, §3, §4

Cercospora beticola = test: In vitro-test with fungal microorganisms: Cercospora beticola
Description: as §1, §2, §3, §4

Fusarium culmorum = test: In vitro-test with fungal microorganisms: Fusarium culmorum
Description: as §1, §2, §3, §4

For O=C(NC1CCC1c1ccc(Cl)cc1Cl)c1cccnc1C(F)(F)F (stereo in doubt) [(2.060) cyclobutrifluram, cyclobutrifluram], the efficacy (Cordana musae; 0.04 ppm) was 3%, the efficacy (Cordana musae; 0.2 ppm) was 4% and the efficacy (Cordana musae; 1 ppm) was 6%. It also gave an efficacy (Colletotrichum coccodes; 0.04 ppm) of 5% and an efficacy (Colletotrichum coccodes; 0.2 ppm) of 8%.

O=C(NC1CCC1c1ccc(Cl)cc1Cl)c1cccnc1C(F)(F)F (stereo in doubt) [cyclobutrifluram] showed an efficacy (Diaporthe citri; Table F1, 0.04 ppm) of 0% and an efficacy (Parastasonospora nodorum; Table H2, 0.04 ppm) of 27%.

Molecule O=C(NCCc1ncc(C(F)(F)F)cc1Cl)c1ccccc1C(F)(F)F [(2.005) fluopyram, fluopyram] has an efficacy (Alternaria alternata; 0.16 ppm) of 72%, an efficacy (Alternaria alternata; 0.8 ppm) of 73% and an efficacy (Alternaria alternata; 4 ppm) of 95%. For the same molecule, the efficacy (Cordana musae; 0.16 ppm) was 0%, the efficacy (Cordana musae; 0.8 ppm) was 6% and 0% and the efficacy (Botrytis cinerea; 0.8 ppm) was 0%. For the same molecule, the efficacy (Colletotrichum coccodes; 0.16 ppm) was 10% and 0% and the efficacy (Colletotrichum coccodes; 0.8 ppm) was 0%.

With Cc1nn(C)c(F)c1C(=O)Nc1ccccc1C(C)CC(C)C (stereo not shown) [(2.017) penflufen, penflufen] the efficacy (Alternaria alternata; 0.2 ppm) was 14%, the efficacy (Botrytis cinerea; 1 ppm) was 35% and the efficacy (Botrytis cinerea; 5 ppm) was 7%. The efficacy (Colletotrichum coccodes; 0.04 ppm) was 5% and the efficacy (Colletotrichum coccodes; 0.2 ppm) was 0%.

CON(C(=O)c1cn(C)nc1C(F)F)C(C)Cc1c(Cl)cc(Cl)cc1Cl (stereo not shown) [(2.019) pydiflumetofen, pydiflumetofen] gave an efficacy (Botrytis cinerea; 0.04 ppm) of 71%, an efficacy (Botrytis cinerea; 0.2 ppm) of 82% and an efficacy (Botrytis cinerea; 1 ppm) of 92%. The efficacy (Colletotrichum coccodes; 0.008 ppm) was 8% and 9% and the efficacy (Colletotrichum coccodes; 0.2 ppm) was 19%.

In the case of CC(C)c1ccc(Cl)cc1CN(C(=O)c1c(C(F)F)nn(C)c1F)C1CC1 [(2.038) isoflucypram, isoflucypram], the efficacy (Alternaria alternata; 0.008 ppm) is reported as 51%, the efficacy (Alternaria alternata; 0.2 ppm) is reported as 69% and the efficacy (Cordana musae; 0.008 ppm) is reported as 8% and 2%. It also gave an efficacy (Cordana musae; 0.04 ppm) of 0%, an efficacy (Cercospora beticola; 0.008 ppm) of 20% and an efficacy (Cercospora beticola; 0.04 ppm) of 30%. The efficacy (Cercospora beticola; 0.2 ppm) was 0%, the efficacy (Cercospora beticola; 1 ppm) was 88% and the efficacy (Colletotrichum coccodes; 0.008 ppm) was 23%. The efficacy (Colletotrichum coccodes; 0.04 ppm) was 9% and 5% and the efficacy (Colletotrichum coccodes; 0.2 ppm) was 14%.

With CO/N=C(/C1=NOCCO1)c1ccccc1Oc1ncnc(Oc2ccccc2Cl)c1F [(3.012) fluoxastrobin, fluoxastrobin] the efficacy (Alternaria alternata; 2 ppm) was 100%, the efficacy (Cordana musae; 2 ppm) was 77% and the efficacy (Cordana musae; 10 ppm) was 87%. The efficacy (Botrytis cinerea; 0.08 ppm) was 15% and 12%, the efficacy (Botrytis cinerea; 2 ppm) was 59% and 52% and the efficacy (Botrytis cinerea; 10 ppm) was 86% and 83%. The efficacy (Cercospora beticola; 2 ppm) was 94%, the efficacy (Colletotrichum coccodes; 0.008 ppm) was 0% and the efficacy (Colletotrichum coccodes; 0.08 ppm) was 30% and 15%. The efficacy (Colletotrichum coccodes; 0.4 ppm) was 49% and 50% and 51%, the efficacy (Colletotrichum coccodes; 2 ppm) was 88% and 87% and 82% and 83% and the efficacy (Colletotrichum coccodes; 10 ppm) was 94% and 95% and 96%.

Molecule CON=C(C(=O)OC)c1ccccc1CON=C(C)c1cccc(C(F)(F)F)c1 [(3.020) trifloxystrobin, trifloxystrobin] has an efficacy (Alternaria alternata; 0.008 ppm) of 39%, an efficacy (Alternaria alternata; 1 ppm) of 100% and an efficacy (Cordana musae; 0.008 ppm) of 29%. The efficacy (Cordana musae; 0.04 ppm) was 82%, the efficacy (Cordana musae; 0.2 ppm) was 83% and 82% and the efficacy (Cordana musae; 1 ppm) was 89% and 88% and 86% and 85%. For the same molecule, the efficacy (Botrytis cinerea; 0.008 ppm) was 0%, the efficacy (Botrytis cinerea; 0.04 ppm) was 9% and the efficacy (Botrytis cinerea; 0.2 ppm) was 25%. The efficacy (Botrytis cinerea; 1 ppm) was 81%, the efficacy (Colletotrichum coccodes; 0.04 ppm) was 58% and 62% and 61% and the efficacy (Colletotrichum coccodes; 0.2 ppm) was 84% and 88% and 82%. For the same molecule, the efficacy (Colletotrichum coccodes; 1 ppm) was 96% and 97% and 92%.

For Cc1cccc(-n2nnn(C)c2=O)c1COc1ccn(-c2ccc(Cl)cc2)n1 [(3.030) metyltetraprole, metyltetraprole], the efficacy (Alternaria alternata; 2 ppm) was 92% and 99%, the efficacy (Alternaria alternata; 10 ppm) was 99% and the efficacy (Cordana musae; 0.08 ppm) was 65%. The efficacy (Cordana musae; 0.4 ppm) was 77%, the efficacy (Cordana musae; 10 ppm) was 96% and the efficacy (Botrytis cinerea; 0.08 ppm) was 18%. The efficacy (Botrytis cinerea; 0.4 ppm) was 30% and 25%, the efficacy (Botrytis cinerea; 10 ppm) was 84% and the efficacy (Colletotrichum coccodes; 0.008 ppm) was 36%. For the same molecule, the efficacy (Colletotrichum coccodes; 0.4 ppm) was 75% and 73% and 72%, the efficacy (Colletotrichum coccodes; 2 ppm) was 92% and 94% and 82% and the efficacy (Colletotrichum coccodes; 10 ppm) was 100%.

For COC(=O)C(O)(Cn1cncn1)c1ccc(Oc2ccc(Cl)cc2)cc1Cl (stereo not shown) [(I-1), Methyl 2-[2-chloro-4-(4-chlorophenoxy)phenyl]-2-hydroxy-3-(1,2,4-triazol-1-yl)propanoate], the efficacy (Alternaria alternata; 2.5 ppm) was 92%, the efficacy (Diaporthe citri; Table F1, 2.5 ppm) was 99% and the efficacy (Diaporthe citri; Table F2, 0.02 ppm) was 2%. For the same molecule, the efficacy (Diaporthe citri; Table F2, 0.5 ppm) was 92%, the efficacy (Diaporthe citri; Table F2, 2.5 ppm) was 98% and the efficacy (Botrytis cinerea; 2.5 ppm) was 62%. The efficacy (Botrytis cinerea; 2.5 ppm, with penflufen 1 ppm, metyltetraprole 0.08 ppm) was 63%, the efficacy (Cercospora beticola; 0.02 ppm) was 50% and the efficacy (Cercospora beticola; 0.1 ppm) was 36%. It also gave an efficacy (Cercospora beticola; 0.5 ppm) of 74%, an efficacy (Cercospora beticola; 2.5 ppm) of 99% and an efficacy (Parastasonospora nodorum; Table H1, 0.02 ppm) of 0%. For the same molecule, the efficacy (Parastasonospora nodorum; Table H1, 2.5 ppm) was 99%, the efficacy (Parastasonospora nodorum; Table H2, 0.02 ppm) was 2% and 0% and 3% and the efficacy (Parastasonospora nodorum; Table H2, 2.5 ppm) was 96%. For the same molecule, the efficacy (Parastasonospora nodorum; Table H3, 0.02 ppm) was 9%, the efficacy (Fusarium culmorum; 0.02 ppm) was 9% and the efficacy (Fusarium culmorum; 0.1 ppm) was 6% and 0%. The efficacy (Fusarium culmorum; 0.5 ppm) was 0% and the efficacy (Colletotrichum coccodes; 0.02 ppm) was 0% and 4%.

O=C(NCCc1ncc(C(F)(F)F)cc1Cl)c1ccccc1C(F)(F)F [fluopyram] showed an efficacy (Diaporthe citri; Table F1, 0.16 ppm) of 0%, an efficacy (Parastasonospora nodorum; Table H1, 0.16 ppm) of 14% and an efficacy (Parastasonospora nodorum; Table H1, 20 ppm) of 100%. It also gave an efficacy (Fusarium culmorum; 0.16 ppm) of 9% and an efficacy (Fusarium culmorum; 0.8 ppm) of 18%.

CO/N=C(/C1=NOCCO1)c1ccccc1Oc1ncnc(Oc2ccccc2Cl)c1F [fluoxastrobin] gave an efficacy (Diaporthe citri; Table F1, 0.4 ppm) of 89%, an efficacy (Diaporthe citri; Table F1, 2 ppm) of 98% and an efficacy (Diaporthe citri; Table F2, 2 ppm) of 66%. It also gave an efficacy (Cordana musae; 0.4 ppm) of 64%, an efficacy (Cordana musae; 2 ppm) of 78% and an efficacy (Cordana musae; 10 ppm) of 78%. For the same molecule, the efficacy (Parastasonospora nodorum; Table H1, 0.4 ppm) was 77%, the efficacy (Parastasonospora nodorum; Table H1, 2 ppm) was 87% and the efficacy (Parastasonospora nodorum; Table H2, 0.08 ppm) was 60%. It also gave an efficacy (Parastasonospora nodorum; Table H2, 0.4 ppm) of 65%, an efficacy (Parastasonospora nodorum; Table H2, 2 ppm) of 85% and an efficacy (Parastasonospora nodorum; Table H3, 0.08 ppm) of 57%. The efficacy (Parastasonospora nodorum; Table H3, 2 ppm) was 85%, the efficacy (Parastasonospora nodorum; Table H3, 10 ppm) was 82% and the efficacy (Fusarium culmorum; 0.08 ppm) was 7% and 0%. For the same molecule, the efficacy (Fusarium culmorum; 0.4 ppm) was 17% and the efficacy (Fusarium culmorum; 10 ppm) was 56%.

C[C@@H]1CC(C)(C)c2cccc(NC(=O)c3cn(C)nc3C(F)F)c21 [inpyrfluxam] was tested, and the efficacy (Cordana musae; 0.008 ppm) was 16%, the efficacy (Cordana musae; 0.04 ppm) was 0% and the efficacy (Cordana musae; 0.2 ppm) was 6%. The efficacy (Parastasonospora nodorum; Table H3, 0.008 ppm) was 20%.

For CC(C)c1ccc(Cl)cc1CN(C(=O)c1c(C(F)F)nn(C)c1F)C1CC1 [isoflucypram], the efficacy (Fusarium culmorum; 0.04 ppm) was 0% and the efficacy (Fusarium culmorum; 0.2 ppm) was 11%.

Cc1cccc(-n2nnn(C)c2=O)c1COc1ccn(-c2ccc(Cl)cc2)n1 [metyltetraprole] gave an efficacy (Diaporthe citri; Table F1, 0.4 ppm) of 91%, an efficacy (Diaporthe citri; Table F1, 2 ppm) of 99% and an efficacy (Diaporthe citri; Table F1, 10 ppm) of 99%. It also gave an efficacy (Diaporthe citri; Table F2, 0.4 ppm) of 89%, an efficacy (Diaporthe citri; Table F2, 2 ppm) of 99% and an efficacy (Cordana musae; 0.08 ppm) of 58%. For the same molecule, the efficacy (Cordana musae; 0.4 ppm) was 73%, the efficacy (Cordana musae; 2 ppm) was 82% and the efficacy (Parastasonospora nodorum; Table H2, 0.08 ppm) was 80% and 76%. For the same molecule, the efficacy (Parastasonospora nodorum; Table H2, 0.4 ppm) was 92%, the efficacy (Parastasonospora nodorum; Table H2, 2 ppm) was 100% and the efficacy (Parastasonospora nodorum; Table H2, 10 ppm) was 100%.

Cc1nn(C)c(F)c1C(=O)Nc1ccccc1C(C)CC(C)C (stereo not shown) [penflufen] showed an efficacy (Diaporthe citri; Table F2, 0.04 ppm) of 0%, an efficacy (Diaporthe citri; Table F2, 0.2 ppm) of 0% and an efficacy (Cordana musae; 0.2 ppm) of 0%. The efficacy (Cordana musae; 1 ppm) was 0% and the efficacy (Parastasonospora nodorum; Table H2, 5 ppm) was 22%.

With CON(C(=O)c1cn(C)nc1C(F)F)C(C)Cc1c(Cl)cc(Cl)cc1Cl (stereo not shown) [pydiflumetofen] the efficacy (Diaporthe citri; Table F2, 0.04 ppm) was 0%, the efficacy (Diaporthe citri; Table F2, 0.2 ppm) was 22% and the efficacy (Diaporthe citri; Table F2, 1 ppm) was 33%. It also gave an efficacy (Cordana musae; 0.008 ppm) of 0% and an efficacy (Cordana musae; 0.04 ppm) of 9%.

Work on CON=C(C(=O)OC)c1ccccc1CON=C(C)c1cccc(C(F)(F)F)c1 [trifloxystrobin] yielded an efficacy (Cordana musae; 0.2 ppm) of 73%, an efficacy (Cordana musae; 1 ppm) of 84% and an efficacy (Parastasonospora nodorum; Table H1, 0.04 ppm) of 65%. The efficacy (Parastasonospora nodorum; Table H1, 0.2 ppm) was 85%, the efficacy (Parastasonospora nodorum; Table H2, 0.008 ppm) was 44% and the efficacy (Parastasonospora nodorum; Table H2, 0.04 ppm) was 79%. For the same molecule, the efficacy (Fusarium culmorum; 0.008 ppm) was 14%, the efficacy (Fusarium culmorum; 0.04 ppm) was 18% and the efficacy (Fusarium culmorum; 0.2 ppm) was 41%. For the same molecule, the efficacy (Fusarium culmorum; 1 ppm) was 68%.

With inpyrfluxam [(2.027) inpyrfluxam] the efficacy (Alternaria alternata; 0.008 ppm) was 0%, the efficacy (Alternaria alternata; 0.04 ppm) was 41% and 27% and the efficacy (Alternaria alternata; 1 ppm) was 86%. For the same molecule, the efficacy (Cordana musae; 0.008 ppm) was 16%, the efficacy (Cordana musae; 0.04 ppm) was 0% and the efficacy (Cordana musae; 0.2 ppm) was 6%. It also gave an efficacy (Botrytis cinerea; 0.008 ppm) of 0%, an efficacy (Botrytis cinerea; 0.04 ppm) of 37% and an efficacy (Botrytis cinerea; 0.08 ppm) of 0%. It also gave an efficacy (Colletotrichum coccodes; 0.008 ppm) of 0%, an efficacy (Colletotrichum coccodes; 0.08 ppm) of 24% and an efficacy (Colletotrichum coccodes; 0.2 ppm) of 0%. The efficacy (Colletotrichum coccodes; 0.4 ppm) was 23%.
